{
  "source": "patent US20110300154A1",
  "about": "“TREATMENT OF AIRWAY HYPERREACTIVITY” (CHILDREN'S MEDICAL CENTER CORPORATION, priority 2007, published 2011)",
  "key": {"[1]": {"test_system": "iNKT cells", "settings": "cited from earlier work"}, "[2]": {"test_system": "iNKT cells", "assay": "BAL fluid secondary outcomes after α-GalCer challenge", "assay_type": "in vivo, cynomolgus monkeys", "settings": "monkeys, after α-GalCer vs vehicle", "excerpt": "(§1) Four monkeys were challenged with α-GalCer or vehicle using a cross-over design (approved by animal care and use committees at the Children's Hospital Boston and the Charles River Laboratory), which minimized the effects of genetic variation and the differing past histories in each of the outbred monkeys. […] Each adult cynomolgus monkey was anesthetized, intubated and challenged with nebulized α-GalCer or vehicle. For safety reasons and to avoid any possible toxic effects of α-GalCer that might cause AHR, a dose escalation approach was used, starting with a very low dose of α-GalCer (150 μg/m^2), similar to the lowest doses used intravenously in Phase I safety studies in humans with solid tumors. Only one dose of α-GalCer was administered to the monkeys before evaluation of AHR, because following activation with α-GalCer, iNKT cells become anergic temporarily (53). 24 hours after challenge, the monkeys were reintubated and assessed for AHR by measuring lung resistance (RL) in response to increasing concentrations of methacholine."}, "[3]": {"test_system": "iNKT cells", "assay": "AHR (lung resistance to methacholine) after nebulized α-GalCer challenge, cross-over design", "assay_type": "in vivo, cynomolgus monkeys", "excerpt": "as §1"}},
  "note": "Entries after “also recorded” stand apart in the source; their conditions may differ.",
  "data": [
    {"compound": "CCCCCCCCCCCCCCCCCCCCCCCCCC(=O)N[C@@H](CO[C@H]1O[C@H](CO)[C@H](O)[C@H](O)[C@H]1O)[C@H](O)[C@H](O)CCCCCCCCCCCCCC", "note": "[α-GalCer, α-GalactosylCeramide]", "values": [
      {"measurement": "induction of AHR in wildtype / naïve mice", "setting": "[1]; administered into the lungs / intranasally", "result": "causes AHR; also recorded: results in the development of AHR"},
      {"measurement": "induction of AHR / effects in iNKT (NKT) cell deficient mice", "setting": "[1]; administered into the lungs", "result": "no effects"},
      {"measurement": "induction of AHR in class II−/− mice (lack conventional CD4+ T cells)", "setting": "[1]; without allergen administration", "result": "functioned to induce AHR"},
      {"measurement": "increased IL-4 in the BAL fluid (secondary outcome)", "setting": "[2]", "result": "did not reach statistical significance"},
      {"measurement": "increased eosinophils in the BAL fluid (secondary outcome)", "setting": "[2]", "result": "did not reach statistical significance"},
      {"measurement": "increased iNKT cells in the BAL fluid (secondary outcome)", "setting": "[2]", "result": "did not reach statistical significance"},
      {"measurement": "increased neutrophils in the BAL fluid (secondary outcome)", "setting": "[2]", "result": "did not reach statistical significance"},
      {"measurement": "percentage change in lung resistance (RL) from baseline compared to vehicle control", "setting": "[3]; combined data of four monkeys, highest dose of methacholine, paired T test p=0.0003", "result": "significantly higher"},
      {"measurement": "AHR compared to challenge with vehicle control, monkeys responding", "setting": "[3]; first very low inhaled dose 150 μg/m^2, 24 h after challenge, four monkeys", "result": "three of the four monkeys developed significantly increased AHR"},
      {"measurement": "AHR response of monkey B (non-responder to first dose)", "setting": "[3]; higher dose 600 μg/m^2, 24 h after challenge", "result": "developed a significant AHR response"},
      {"measurement": "induction of airway hyperreactivity (AHR)", "setting": "[3]; monkeys, α-GalCer challenge in the absence of ozone or allergen", "result": "induced AHR; also recorded: resulted in the development of significant AHR; also recorded: induces airway hyperreactivity"}
    ]}
  ]
}
